Experimental data from ChEMBL document CHEMBL1221253, “Fragment-based discovery and optimization of BACE1 inhibitors” (Bioorg Med Chem Lett, 2010).

molecular target: T1, Beta-secretase 1 (Homo sapiens, UniProt P56817); assay: Inhibition of BACE1 assessed as amyloid beta secretion by cell based assay; details: not given
T1 sequence (P56817 whole entry): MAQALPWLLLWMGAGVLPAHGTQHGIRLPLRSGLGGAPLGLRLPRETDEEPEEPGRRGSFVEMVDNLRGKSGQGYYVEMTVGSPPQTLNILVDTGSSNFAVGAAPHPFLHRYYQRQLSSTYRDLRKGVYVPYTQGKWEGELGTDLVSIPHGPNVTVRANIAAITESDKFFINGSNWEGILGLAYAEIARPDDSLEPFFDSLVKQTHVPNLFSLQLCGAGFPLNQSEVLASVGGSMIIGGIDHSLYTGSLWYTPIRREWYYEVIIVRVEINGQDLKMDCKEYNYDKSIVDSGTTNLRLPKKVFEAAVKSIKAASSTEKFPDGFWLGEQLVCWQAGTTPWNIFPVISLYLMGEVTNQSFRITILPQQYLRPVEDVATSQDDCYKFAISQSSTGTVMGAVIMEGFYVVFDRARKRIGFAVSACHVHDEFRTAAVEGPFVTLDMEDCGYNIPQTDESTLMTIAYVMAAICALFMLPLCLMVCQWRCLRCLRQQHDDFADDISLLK

IC50 | Compound
87 µM | CC[C@@H](CC(=O)N[C@@H](COC(C)(C)C)C(=O)O)n1c(N)nc2cc(Cl)ccc21
325 µM | CN1CCC(NC(=O)CCCn2c(N)nc3cc(Cl)ccc32)CC1
246 µM | CC(C)C[C@@H](CC(=O)NC(C)C)n1c(N)nc2cc(Cl)ccc21
862 µM | Clc1cccc(-c2cnc3ncccn23)c1
> 1000 µM | CC(C)C[C@H](CC(=O)NC(C)C)n1c(N)nc2cc(Cl)ccc21
1010 µM | c1cnc2ncc(-c3ccncc3)n2c1
75 µM | CC[C@@H](CC(=O)N[C@H](COC(C)(C)C)C(=O)OC)n1c(N)nc2cc(Cl)ccc21
340 µM | CC[C@@H](CC(=O)NCc1cccc(F)c1)n1c(N)nc2cc(Cl)ccc21
928 µM | COn1c(-c2ccccc2)nc2ncccc21
516 µM | CC[C@H](CC(=O)NCc1ccccc1)n1c(N)nc2cc(Cl)ccc21
375 µM | CC[C@@H](CC(=O)N(C)CC1CCCCC1)n1c(N)nc2cc(Cl)ccc21
72 µM | CC[C@@H](CC(=O)NCc1ccccc1)n1c(N)nc2cc(Cl)ccc21
235 µM | CC(C)C[C@@H](CC(=O)NCc1ccccn1)n1c(N)nc2cc(Cl)ccc21
59 µM | CN(CC1CCCCC1)C(=O)CCCn1c(N)nc2cc(Cl)ccc21
827 µM | Nc1nc2cc(Cl)ccc2n1CCCC(=O)NCCN1CCOCC1
194 µM | CN(Cc1cccc(F)c1)C(=O)CCCn1c(N)nc2cc(Cl)ccc21
243 µM | CC[C@@H](CC(=O)NCC1CC1)n1c(N)nc2cc(Cl)ccc21
426 µM | Nc1nc2cc(Cl)ccc2n1CCCC(=O)NCc1ccccn1
695 µM | CC[C@@H](CC(=O)NC(C)C)n1c(N)nc2cc(Cl)ccc21
440 µM | CC[C@@H](CC(=O)NCCN1CCOCC1)n1c(N)nc2cc(Cl)ccc21
95 µM | CC[C@@H](CC(=O)NCCC(C)(C)C)n1c(N)nc2cc(Cl)ccc21

Second part, the molecule before the results:

Compound | IC50
Nc1nc2cc(Cl)ccc2n1CCCC(=O)NCC1CCCCC1 | 83 µM
O=C1c2ccccc2C(=O)C1(O)O | 776 µM
CC(C)C[C@@H](CC(=O)NCc1cccc(F)c1)n1c(N)nc2cc(Cl)ccc21 | 54 µM
Nc1nc2cc(Cl)ccc2n1CCCC(=O)NCc1ccccc1 | 1400 µM
CC[C@@H](CC(=O)NCc1ccc(F)cc1)n1c(N)nc2cc(Cl)ccc21 | 264 µM
CC[C@@H](CC(=O)NCCC1CCNC1)n1c(N)nc2cc(Cl)ccc21 (stereo not given in full) | 270 µM
Nc1nc2ccc(Cl)cc2[nH]1 | 731 µM
CC[C@@H](CC(=O)N[C@@H](COC(C)(C)C)C(=O)OC)n1c(N)nc2cc(Cl)ccc21 | 168 µM
Nc1nc2cc(Cl)ccc2n1CCCC(=O)NCc1cccc(F)c1 | 249 µM
CC[C@@H](CC(=O)NCc1ccccn1)n1c(N)nc2cc(Cl)ccc21 | > 1000 µM
Nc1nc2cc(Cl)ccc2n1CCCO | 770 µM
Nc1nc2cc(Cl)ccc2n1CCCC(=O)NCCC1CCNC1 (stereo not given) | 444 µM
Nc1nc2cc(Cl)ccc2n1CCCC(=O)NCC1CC1 | 2850 µM
CC[C@@H](CC(=O)NCC1CCOCC1)n1c(N)nc2cc(Cl)ccc21 | > 1000 µM
CC(C)NC(=O)CCCn1c(N)nc2cc(Cl)ccc21 | 193 µM

molecular target: T2, Beta-secretase 2 (Homo sapiens, UniProt Q9Y5Z0); assay: Inhibition of human BACE2; details: not given
T2 sequence (Q9Y5Z0 whole entry): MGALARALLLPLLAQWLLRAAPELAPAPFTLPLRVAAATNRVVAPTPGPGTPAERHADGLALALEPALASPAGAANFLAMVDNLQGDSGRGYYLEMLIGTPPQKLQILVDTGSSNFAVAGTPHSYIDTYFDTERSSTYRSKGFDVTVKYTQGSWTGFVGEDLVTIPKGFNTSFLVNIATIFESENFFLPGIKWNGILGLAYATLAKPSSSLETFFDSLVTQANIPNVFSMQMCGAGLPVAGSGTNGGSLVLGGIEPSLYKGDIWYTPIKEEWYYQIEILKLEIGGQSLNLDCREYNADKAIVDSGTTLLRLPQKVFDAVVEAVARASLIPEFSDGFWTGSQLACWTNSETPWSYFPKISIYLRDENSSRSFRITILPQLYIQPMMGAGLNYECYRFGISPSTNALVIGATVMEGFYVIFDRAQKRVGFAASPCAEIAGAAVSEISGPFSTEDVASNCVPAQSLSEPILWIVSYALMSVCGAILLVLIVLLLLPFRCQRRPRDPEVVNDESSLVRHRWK

IC50 | Compound
8 µM | CC[C@@H](CC(=O)NCC1CCCCC1)n1c(N)nc2cc(Cl)ccc21

test system: not listed separately; assay: Maximum drug flux by PAMPA; format: ADME; details: not given

Activity | Compound
12% | CC[C@@H](CC(=O)NCC1CCCCC1)n1c(N)nc2cc(Cl)ccc21

test system: not listed separately; assay: Half life in human liver microsomes; format: ADME, Microsome; details: not given

half-life | Compound
5.5 min | CC[C@@H](CC(=O)NCC1CCCCC1)n1c(N)nc2cc(Cl)ccc21

molecular target: T1, Beta-secretase 1; assay: Binding affinity to BACE1 at 2 mM by surface plasmon resonance assay; details: not given

inhibition | Compound
29% | Clc1cccc(-c2cnc3ncccn23)c1
20% | c1cnc2ncc(-c3ccncc3)n2c1
36% | COn1c(-c2ccccc2)nc2ncccc21

Continued, molecule first:

Compound | inhibition
O=C1c2ccccc2C(=O)C1(O)O | 27%
Nc1nc2ccc(Cl)cc2[nH]1 | 34%
Nc1nc2cc(Cl)ccc2n1CCCO | 63%

molecular target: Voltage-gated inwardly rectifying potassium channel KCNH2 (Homo sapiens, UniProt Q12809); assay: Inhibition of human ERG; details: not given
Sequence (Q12809 whole entry): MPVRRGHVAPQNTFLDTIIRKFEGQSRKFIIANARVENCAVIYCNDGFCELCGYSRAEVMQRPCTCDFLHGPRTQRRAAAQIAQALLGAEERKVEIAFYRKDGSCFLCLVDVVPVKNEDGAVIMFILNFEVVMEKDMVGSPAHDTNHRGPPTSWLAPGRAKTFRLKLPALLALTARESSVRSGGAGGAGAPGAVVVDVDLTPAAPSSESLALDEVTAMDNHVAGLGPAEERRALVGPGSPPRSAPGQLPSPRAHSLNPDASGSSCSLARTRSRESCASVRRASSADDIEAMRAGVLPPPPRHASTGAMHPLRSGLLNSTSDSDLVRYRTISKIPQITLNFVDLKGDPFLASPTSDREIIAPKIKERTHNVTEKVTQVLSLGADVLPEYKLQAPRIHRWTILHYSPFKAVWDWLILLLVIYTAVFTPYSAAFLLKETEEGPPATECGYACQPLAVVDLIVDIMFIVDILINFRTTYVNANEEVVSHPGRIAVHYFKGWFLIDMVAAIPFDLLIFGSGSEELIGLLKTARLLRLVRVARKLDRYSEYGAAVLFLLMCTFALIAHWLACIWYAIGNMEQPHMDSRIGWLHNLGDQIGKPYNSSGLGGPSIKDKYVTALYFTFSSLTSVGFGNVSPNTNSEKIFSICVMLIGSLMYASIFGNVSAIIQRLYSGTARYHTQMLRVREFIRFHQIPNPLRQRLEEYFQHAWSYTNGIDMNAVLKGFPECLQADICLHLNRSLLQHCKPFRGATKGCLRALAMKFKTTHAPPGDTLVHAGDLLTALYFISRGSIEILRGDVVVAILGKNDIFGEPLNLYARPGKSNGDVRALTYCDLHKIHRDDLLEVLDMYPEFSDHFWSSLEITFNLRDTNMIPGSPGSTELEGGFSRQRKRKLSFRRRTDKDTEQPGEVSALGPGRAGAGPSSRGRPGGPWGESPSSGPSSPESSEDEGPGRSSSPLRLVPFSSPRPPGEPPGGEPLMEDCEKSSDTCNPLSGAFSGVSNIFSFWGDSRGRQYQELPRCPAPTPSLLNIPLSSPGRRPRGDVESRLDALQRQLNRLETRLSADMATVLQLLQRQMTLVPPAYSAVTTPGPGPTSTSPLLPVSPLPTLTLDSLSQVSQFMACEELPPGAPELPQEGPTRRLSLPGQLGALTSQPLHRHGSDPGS

Compound | IC50
CC[C@@H](CC(=O)NCC1CCCCC1)n1c(N)nc2cc(Cl)ccc21 | 7.5 µM

test system: not listed separately; assay: Genotoxicity in Salmonella Typhimurium by Ames test in presence of S9 liver microsomes; format: toxicity, Microsome; details: salmonella enterica subsp. enterica serovar typhimurium

Compound | Activity
CC[C@@H](CC(=O)NCC1CCCCC1)n1c(N)nc2cc(Cl)ccc21 | Non-toxic

test system: not listed separately; assay: Half life in rat liver microsomes; format: ADME, Microsome; details: not given

half-life | Compound
6.7 min | CC[C@@H](CC(=O)NCC1CCCCC1)n1c(N)nc2cc(Cl)ccc21

molecular target: Cathepsin D (Homo sapiens, UniProt P07339); assay: Inhibition of cathepsin D; details: not given
Sequence (P07339 65-162 limits assumed): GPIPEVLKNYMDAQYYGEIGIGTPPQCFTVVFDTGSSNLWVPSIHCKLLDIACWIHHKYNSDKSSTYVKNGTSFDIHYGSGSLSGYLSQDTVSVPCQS
Sequence (P07339 169-412 limits assumed): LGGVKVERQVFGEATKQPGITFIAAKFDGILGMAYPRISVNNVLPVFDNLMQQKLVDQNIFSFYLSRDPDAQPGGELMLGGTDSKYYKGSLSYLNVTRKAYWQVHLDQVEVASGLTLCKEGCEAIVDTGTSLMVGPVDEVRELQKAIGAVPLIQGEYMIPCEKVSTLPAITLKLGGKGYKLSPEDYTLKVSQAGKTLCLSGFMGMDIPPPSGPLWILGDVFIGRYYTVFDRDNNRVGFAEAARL

IC50 | Compound
42 µM | CC[C@@H](CC(=O)NCC1CCCCC1)n1c(N)nc2cc(Cl)ccc21

test system: not listed separately; assay: Genotoxicity in Salmonella Typhimurium by Ames test; format: toxicity; details: salmonella enterica subsp. enterica serovar typhimurium

Compound | Activity
CC[C@@H](CC(=O)NCC1CCCCC1)n1c(N)nc2cc(Cl)ccc21 | Non-toxic
